Test results published in patent US20250282827A1, “LIPIDATED POLYMYXIN ANALOGUES” (priority 2021, published 2025).
≈ marks a conversion by molar mass, not a printed value. Like-named read-outs stand apart in the source and are kept apart here. Positions of bridges follow the written chain, without caps; N, C: chain ends. Non-standard residues stand in square brackets, D forms with d. Residues, ends and D or L forms follow the SMILES beside them. *: point of attachment. Ethyl(2-propionyloxy) = CCC(=O)OCC*; Ethyl(2-OPiv) = CC(C)(C)C(=O)OCC*; Ethyl(2-OBz) = O=C(OCC*)c1ccccc1; Lauroyl = CCCCCCCCCCCC(=O)*; hCys = N[C@@H](CCS)C(=O)O; Octanoyl = CCCCCCCC(=O)*; Dab = NCC[C@H](N)C(=O)O; X6 = CCC(C)(C)C(=O)OCC*; X10 = CCC(C)CC(=O)OCC*; X4 = CCCCCCCC(=O)OCC*; X7 = CC(C)CCC(=O)OCC*; X5 = CCC(C)C(=O)OCC*; X9 = CC(C)CC(=O)OCC*; X1 = CCCCCC(=O)OCC*; X13 = CCCCC(=O)OCC*; Mpa = O=C(O)CCS

What was measured:
E. coli ATCC MS8345 = type: cell-based, Escherichia coli
Source text: (§1) All 81 compounds prepared in Examples 2 and 3 underwent screening against a panel of Gram-negative bacterium to assess their ability to inhibit bacterial growth. […] The median value is presented.
Expansion of the polymyxin macrocycle by substituting […]) offered little advantage in antimicrobial activity but was generally well tolerated although for A. baumanni and P. aeruginosa this was detrimental.

A. baumannii ATCC 19606 = type: cell-based, Acinetobacter baumannii
Source text: as §1

P. aeruginosa ATCC 27853 = type: cell-based, Pseudomonas aeruginosa
Source text: as §1

E. coli ATCC 25922 = type: cell-based, Escherichia coli
Source text: as §1

[1] = system: K. pneumoniae ATCC 700603; type: cell-based, Klebsiella pneumoniae
Source text: as §1

[2] = system: K. pneumoniae ATCC MS6671; type: cell-based, Klebsiella pneumoniae
Source text: as §1

K. pneumoniae ATCC 33495 = type: cell-based, Klebsiella pneumoniae
Source text: as §1

[3] = colistin-resistant strain, median of triplicate

| SMILES | MIC E. coli ATCC MS8345 (E. coli ATCC MS8345; [3]) [µg/mL] | MIC A. baumannii ATCC 19606 (A. baumannii ATCC 19606; median of triplicate) [µg/mL] | MIC P. aeruginosa ATCC 27853 (P. aeruginosa ATCC 27853; median of triplicate) [µg/mL] | MIC E. coli ATCC 25922 (E. coli ATCC 25922; median of triplicate) [µg/mL] | MIC K. pneumoniae ATCC 700603 ([1]; median of triplicate) [µg/mL] | MIC K. pneumoniae ATCC MS6671 ([2]; median of triplicate) [µg/mL] | MIC K. pneumoniae ATCC 33495 (K. pneumoniae ATCC 33495; median of triplicate) [µg/mL] | MIC E. coli ATCC MS8345 (E. coli ATCC MS8345; ATCC MS8345) [µg/mL] | MIC A. baumannii ATCC 19606 (A. baumannii ATCC 19606; ATCC 19606) [µg/mL] | MIC P. aeruginosa ATCC 27853 (P. aeruginosa ATCC 27853; ATCC 27853) [µg/mL] | MIC E. coli ATCC 25922 (E. coli ATCC 25922; ATCC 25922) [µg/mL] | MIC K. pneumoniae ATCC 700603 ([1]; ATCC 700603) [µg/mL] | MIC K. pneumoniae ATCC MS6671 ([2]; ATCC MS6671) [µg/mL] | MIC K. pneumoniae ATCC 33495 (K. pneumoniae ATCC 33495; ATCC 33495) [µg/mL] |
| --- | --- | --- | --- | --- | --- | --- | --- | --- | --- | --- | --- | --- | --- | --- |
| CCCCCCCC(=O)N[C@@H](CSCCOC(=O)c1ccccc1)C(=O)N[C@@H](CCN)C(=O)N[C@H](C(=O)N[C@@H](CCN)C(=O)N[C@H]1CCNC(=O)[C@H]([C@@H](C)O)NC(=O)[C@H](CCN)NC(=O)[C@H](CCN)NC(=O)[C@H](CSCCOC(=O)c2ccccc2)NC(=O)[C@@H](Cc2ccccc2)NC(=O)[C@H](CCN)NC1=O)[C@@H](C)O [Compound 51] (Octanoyl-C(Ethyl(2-OBz))[Dab]T[Dab][Dab][Dab][dF]C(Ethyl(2-OBz))[Dab][Dab]T; lactam 5-C) | 2 to 4 | 1 to 2 | 2 (≈ 1.27 µM) | 2 (≈ 1.27 µM) | 2 to 4 | >32 | 2 (≈ 1.27 µM) | – | – | – | – | – | – | – |
| CCCCCCCCCCCC(=O)N[C@@H](CSCCOC(=O)c1ccccc1)C(=O)N[C@@H](CCN)C(=O)N[C@H](C(=O)N[C@@H](CCN)C(=O)N[C@H]1CCNC(=O)[C@H]([C@@H](C)O)NC(=O)[C@H](CCN)NC(=O)[C@H](CCN)NC(=O)[C@H](CSCCOC(=O)c2ccccc2)NC(=O)[C@@H](Cc2ccccc2)NC(=O)[C@H](CCN)NC1=O)[C@@H](C)O [Compound 52] (Lauroyl-C(Ethyl(2-OBz))[Dab]T[Dab][Dab][Dab][dF]C(Ethyl(2-OBz))[Dab][Dab]T; lactam 5-C) | 2 to 4 | 2 to 4 | 4 (≈ 2.45 µM) | 2 to 4 | 4 (≈ 2.45 µM) | >32 | 2 to 4 | – | – | – | – | – | – | – |
| CCC(=O)OCCSCCC(=O)N[C@@H](CCN)C(=O)N[C@H](C(=O)N[C@@H](CCN)C(=O)N[C@H]1CCNC(=O)[C@H]([C@@H](C)O)NC(=O)[C@H](CCN)NC(=O)[C@H](CCN)NC(=O)[C@H](CC(C)C)NC(=O)[C@@H](Cc2ccccc2)NC(=O)[C@H](CCN)NC1=O)[C@@H](C)O [Compound 59] ([Mpa](Ethyl(2-propionyloxy))[Dab]T[Dab][Dab][Dab][dF]L[Dab][Dab]T; lactam 5-C) | – | – | – | – | – | – | – | >32 | 32 (≈ 25.6 µM) | 2 (≈ 1.6 µM) | 0.5 (≈ 0.4 µM) | 1 (≈ 0.799 µM) | >32 | 0.5 (≈ 0.4 µM) |
| CCC(=O)OCCSCC[C@H](N)C(=O)N[C@@H](CCN)C(=O)N[C@H](C(=O)N[C@@H](CCN)C(=O)N[C@H]1CCNC(=O)[C@H]([C@@H](C)O)NC(=O)[C@H](CCN)NC(=O)[C@H](CCN)NC(=O)[C@H](CC(C)C)NC(=O)[C@@H](Cc2ccccc2)NC(=O)[C@H](CCN)NC1=O)[C@@H](C)O [Compound 60] (H-[hCys](Ethyl(2-propionyloxy))[Dab]T[Dab][Dab][Dab][dF]L[Dab][Dab]T; lactam 5-C) | – | – | – | – | – | – | – | 16 (≈ 12.5 µM) | 2 (≈ 1.56 µM) | 0.5 (≈ 0.39 µM) | 0.25 (≈ 0.195 µM) | 0.25 to 0.5 | >32 | 0.25 (≈ 0.195 µM) |
| CCCCC(=O)OCCSC[C@@H](N)C(=O)N[C@H](C(=O)N[C@@H](CCN)C(=O)N[C@H]1CCNC(=O)[C@H]([C@@H](C)O)NC(=O)[C@H](CCN)NC(=O)[C@H](CCN)NC(=O)[C@H](CC(C)C)NC(=O)[C@@H](Cc2ccccc2)NC(=O)[C@H](CCN)NC1=O)[C@@H](C)O [Compound 90] (H-[dC](X13)T[Dab][Dab][Dab][dF]L[Dab][Dab]T; lactam 4-C) | – | – | – | – | – | – | – | >32 | >16 | 4 (≈ 3.35 µM) | 4 (≈ 3.35 µM) | 4 (≈ 3.35 µM) | >32 | 2 (≈ 1.67 µM) |
| CCCCCC(=O)OCCSC[C@@H](N)C(=O)N[C@H](C(=O)N[C@@H](CCN)C(=O)N[C@H]1CCNC(=O)[C@H]([C@@H](C)O)NC(=O)[C@H](CCN)NC(=O)[C@H](CCN)NC(=O)[C@H](CC(C)C)NC(=O)[C@@H](Cc2ccccc2)NC(=O)[C@H](CCN)NC1=O)[C@@H](C)O [Compound 91] (H-[dC](X1)T[Dab][Dab][Dab][dF]L[Dab][Dab]T; lactam 4-C) | – | – | – | – | – | – | – | 16 (≈ 13.2 µM) | 4 (≈ 3.31 µM) | 2 (≈ 1.65 µM) | 1 (≈ 0.827 µM) | 2 (≈ 1.65 µM) | >32 | 1 (≈ 0.827 µM) |
| CCCCCCCC(=O)OCCSC[C@@H](N)C(=O)N[C@H](C(=O)N[C@@H](CCN)C(=O)N[C@H]1CCNC(=O)[C@H]([C@@H](C)O)NC(=O)[C@H](CCN)NC(=O)[C@H](CCN)NC(=O)[C@H](CC(C)C)NC(=O)[C@@H](Cc2ccccc2)NC(=O)[C@H](CCN)NC1=O)[C@@H](C)O [Compound 92] (H-[dC](X4)T[Dab][Dab][Dab][dF]L[Dab][Dab]T; lactam 4-C) | – | – | – | – | – | – | – | 16 (≈ 12.9 µM) | 2 (≈ 1.62 µM) | 2 (≈ 1.62 µM) | 1 (≈ 0.809 µM) | 2 (≈ 1.62 µM) | >32 | 2 (≈ 1.62 µM) |
| CC(C)C[C@@H]1NC(=O)[C@@H](Cc2ccccc2)NC(=O)[C@H](CCN)NC(=O)[C@@H](NC(=O)[C@H](CCN)NC(=O)[C@@H](NC(=O)[C@H](N)CSCCOC(=O)C(C)(C)C)[C@@H](C)O)CCNC(=O)[C@H]([C@@H](C)O)NC(=O)[C@H](CCN)NC(=O)[C@H](CCN)NC1=O [Compound 93] (H-[dC](Ethyl(2-OPiv))T[Dab][Dab][Dab][dF]L[Dab][Dab]T; lactam 4-C) | – | – | – | – | – | – | – | 32 (≈ 26.8 µM) | 4 (≈ 3.35 µM) | 2 (≈ 1.67 µM) | 1 (≈ 0.837 µM) | 2 (≈ 1.67 µM) | >32 | 1 (≈ 0.837 µM) |
| CCC(C)C(=O)OCCSC[C@@H](N)C(=O)N[C@H](C(=O)N[C@@H](CCN)C(=O)N[C@H]1CCNC(=O)[C@H]([C@@H](C)O)NC(=O)[C@H](CCN)NC(=O)[C@H](CCN)NC(=O)[C@H](CC(C)C)NC(=O)[C@@H](Cc2ccccc2)NC(=O)[C@H](CCN)NC1=O)[C@@H](C)O (stereo partly shown) [Compound 95] (H-[dC](X5)T[Dab][Dab][Dab][dF]L[Dab][Dab]T; lactam 4-C) | – | – | – | – | – | – | – | 16 (≈ 13.4 µM) | 4 (≈ 3.35 µM) | 1 (≈ 0.837 µM) | 1 (≈ 0.837 µM) | 2 (≈ 1.67 µM) | >32 | 1 (≈ 0.837 µM) |
| CC(C)CC(=O)OCCSC[C@@H](N)C(=O)N[C@H](C(=O)N[C@@H](CCN)C(=O)N[C@H]1CCNC(=O)[C@H]([C@@H](C)O)NC(=O)[C@H](CCN)NC(=O)[C@H](CCN)NC(=O)[C@H](CC(C)C)NC(=O)[C@@H](Cc2ccccc2)NC(=O)[C@H](CCN)NC1=O)[C@@H](C)O [Compound 96] (H-[dC](X9)T[Dab][Dab][Dab][dF]L[Dab][Dab]T; lactam 4-C) | – | – | – | – | – | – | – | 16 (≈ 13.4 µM) | 4 (≈ 3.35 µM) | 1 (≈ 0.837 µM) | 0.25 (≈ 0.209 µM) | 1 (≈ 0.837 µM) | >32 | 1 (≈ 0.837 µM) |
| CCC(C)CC(=O)OCCSC[C@@H](N)C(=O)N[C@H](C(=O)N[C@@H](CCN)C(=O)N[C@H]1CCNC(=O)[C@H]([C@@H](C)O)NC(=O)[C@H](CCN)NC(=O)[C@H](CCN)NC(=O)[C@H](CC(C)C)NC(=O)[C@@H](Cc2ccccc2)NC(=O)[C@H](CCN)NC1=O)[C@@H](C)O (stereo partly shown) [Compound 97] (H-[dC](X10)T[Dab][Dab][Dab][dF]L[Dab][Dab]T; lactam 4-C) | – | – | – | – | – | – | – | 16 (≈ 13.2 µM) | 4 (≈ 3.31 µM) | 2 (≈ 1.65 µM) | 1 (≈ 0.827 µM) | 2 (≈ 1.65 µM) | >32 | 1 (≈ 0.827 µM) |
| CC(C)CCC(=O)OCCSC[C@@H](N)C(=O)N[C@H](C(=O)N[C@@H](CCN)C(=O)N[C@H]1CCNC(=O)[C@H]([C@@H](C)O)NC(=O)[C@H](CCN)NC(=O)[C@H](CCN)NC(=O)[C@H](CC(C)C)NC(=O)[C@@H](Cc2ccccc2)NC(=O)[C@H](CCN)NC1=O)[C@@H](C)O [Compound 98] (H-[dC](X7)T[Dab][Dab][Dab][dF]L[Dab][Dab]T; lactam 4-C) | – | – | – | – | – | – | – | 4 (≈ 3.31 µM) | 2 (≈ 1.65 µM) | 1 (≈ 0.827 µM) | 0.5 (≈ 0.414 µM) | 1 (≈ 0.827 µM) | >32 | 1 (≈ 0.827 µM) |
| CCC(C)(C)C(=O)OCCSC[C@@H](N)C(=O)N[C@H](C(=O)N[C@@H](CCN)C(=O)N[C@H]1CCNC(=O)[C@H]([C@@H](C)O)NC(=O)[C@H](CCN)NC(=O)[C@H](CCN)NC(=O)[C@H](CC(C)C)NC(=O)[C@@H](Cc2ccccc2)NC(=O)[C@H](CCN)NC1=O)[C@@H](C)O [Compound 99] (H-[dC](X6)T[Dab][Dab][Dab][dF]L[Dab][Dab]T; lactam 4-C) | – | – | – | – | – | – | – | >32 | 4 (≈ 3.31 µM) | 4 (≈ 3.31 µM) | 2 (≈ 1.65 µM) | 2 (≈ 1.65 µM) | >32 | 2 (≈ 1.65 µM) |
